Reference: ChEMBL document CHEMBL1201862, “PubChem BioAssay data set” (2004)
The source made the active and inactive calls. Cut-off read from the data, not from the text of the source, for most assays here: actives have a measured EC50 and inactives only a lower limit.

Key:
[1] = system: BJ; assay: BJ-TERT-LT-ST fibroblast viability loss – cell-based, RAS-independent, luminescence, dose response (AID 1935); assay type: functional; settings: Homo sapiens;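 note: BJ fibroblasts immortalized with TERT plus LT and ST oncogenes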
[2] = system: BJ; assay: BJ-TERT fibroblast viability loss – cell-based, RAS-independent, luminescence, dose response (AID 1933); assay type: functional; settings: Homo sapiens
[3] = DRD fibroblast viability loss – cell-based, non-viral oncogenic, luminescence, dose response (AID 1934); assay type: functional; settings: Homo sapiens
[4] = system: BJ; assay: cells; assay type: functional, cell-based; settings: Homo sapiens
[5] = molecular target: T1, Polyadenylate-binding protein 1 (Homo sapiens, UniProt P11940); assay: MLLE domain peptide-binding blockers, IC50 – biochemical, fluorescence polarization, FITC-PAM2 peptide, dose response (AID 602259); assay type: functional; settings: read-out: IC50_Mean
[6] = molecular target: T1, Polyadenylate-binding protein 1; assay: MLLE binding blockers, Cy5 peptide tracer – biochemical, fluorescence polarization, Cy5-PAM2 peptide, secondary, miRNA deadenylation inhibitor project, dose response (AID 602260); assay type: functional; settings: read-out: IC50_Mean
[7] = Luminescence Cell-Based Dose Response HTS to Identify Inhibitors of 5'UTR Stem-Loop Driven Prion Protein mRNA Translation in H4 Neuroglioblastoma Cells. [Related pubchem assays: 1827 (Project Summary), 1813 (Primary HTS)]; assay type: functional
[8] = Luminescence Cell-Based Dose Retest to Confirm Inhibitors of Cancer Stem Cells. [Related pubchem assays (depositor defined):AID2717, AID2721]; assay type: functional; settings: Homo sapiens
[9] = luciferase reporter signal suppression in cells – H4 neuroglioma cells, luminescence, dose response (AID 1990); assay type: functional, cell-based
[10] = alpha-synuclein stem-loop luciferase translation blockers – H4 neuroglioma cells, luminescence, confirmation (AID 1988); assay type: functional, cell-based
[11] = system: H4; assay: Luminescence Cell-Based Dose Response HTS to Identify Activators of 5'UTR Stem-Loop Driven Prion Protein mRNA Translation in H4 Neuroglioblastoma Cells. [Related pubchem assays: 1829 (Project Summary), 1814 (Primary HTS)]; assay type: functional; settings: Homo sapiens
[12] = Luminescence Cell-Based Dose Confirmation HTS to Identify Activators of 5'UTR Stem-Loop Driven Alpha-Synuclein mRNA Translation in H4 Neuroglioblastoma Cells. [Related pubchem assays: 1829 (Project Summary), 1814 (Primary HTS)]; assay type: functional
[13] = Luminescence Cell-Based Dose Response HTS to Identify Activators of Luciferase Translation or Activity in H4 […] Cells. [Related pubchem assays: 1829 (Project Summary), 1814 (Primary HTS)]; assay type: functional
[14] = Trypanosoma cruzi growth suppression in host cells – NIH3T3 host cells, beta-gal luminescence, confirmation (AID 2044); assay type: functional, cell-based;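 note: intracellular parasites grown in NIH/3T3 mouse fibroblasts as host cells; luminescent beta-galactosidase reporter signal from transgenic T. cruzi replicating inside host cells; inhibitors lower the luminescence signal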
[15] = NIH3T3 cell viability loss – ATP luminescence, mouse fibroblasts, counter-screen, dose response (AID 2010); assay type: functional, cell-based;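 note: cells exposed to compound for about 90 hours before reading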
[16] = Luminescence Cell-Based Dose Confirmation HTS to Identify Inhibitors of Platelet Dense Granule Release. [Related pubchem assays: 1663 (Primary HTS), 1678 (Summary of Project)]; assay type: functional
[17] = molecular target: Luciferin 4-monooxygenase (Photinus pyralis, UniProt P08659); assay: inhibition of purified Photinus pyralis luciferase – biochemical, luminescence, dose response (AID 1891)
[18] = system: H9c2; assay: cells; assay type: functional, cell-based; settings: Rattus norvegicus, H9c2, Myocardium;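 note: confirmatory concentration-response retest of ultra-high-throughput screening hits for modulation of myocardial damage; cell death induced by hydrogen peroxide oxidative stress; compound pretreatment for 60 min then peroxide exposure for 2 h; potency is for protecting the cells against peroxide damage rather than for killing them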
[19] = molecular target: T2, Corticotropin-releasing factor receptor 2/Corticotropin-releasing factor-binding protein (Homo sapiens, UniProt P24387+Q13324); assay: activators of CRF receptor 2 with binding protein – uHTS hits, confirmation (AID 602473); assay type: functional; settings: read-out: EC50_Mean
T2 sequence (Q13324 whole entry): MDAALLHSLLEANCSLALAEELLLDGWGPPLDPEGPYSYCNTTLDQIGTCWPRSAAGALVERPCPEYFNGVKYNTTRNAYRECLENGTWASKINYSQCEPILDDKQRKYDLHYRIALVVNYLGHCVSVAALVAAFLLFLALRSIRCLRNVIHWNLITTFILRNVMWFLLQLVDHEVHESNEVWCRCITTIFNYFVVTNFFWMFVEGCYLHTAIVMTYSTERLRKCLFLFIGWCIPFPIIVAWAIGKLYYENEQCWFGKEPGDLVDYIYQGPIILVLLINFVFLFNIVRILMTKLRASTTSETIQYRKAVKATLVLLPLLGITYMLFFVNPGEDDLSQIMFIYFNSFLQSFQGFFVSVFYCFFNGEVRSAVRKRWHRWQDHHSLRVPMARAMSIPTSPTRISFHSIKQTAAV
T2 sequence (P24387 whole entry): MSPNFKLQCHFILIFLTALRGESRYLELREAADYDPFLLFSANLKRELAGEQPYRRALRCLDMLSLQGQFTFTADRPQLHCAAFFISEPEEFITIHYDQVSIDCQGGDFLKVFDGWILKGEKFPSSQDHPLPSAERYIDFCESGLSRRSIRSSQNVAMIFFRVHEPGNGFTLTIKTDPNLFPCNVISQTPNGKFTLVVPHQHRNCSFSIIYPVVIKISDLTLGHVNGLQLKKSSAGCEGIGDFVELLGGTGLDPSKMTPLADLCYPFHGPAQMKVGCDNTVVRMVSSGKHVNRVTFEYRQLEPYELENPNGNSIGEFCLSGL

[20] = molecular target: T3, Streptokinase A (Streptococcus pyogenes serotype M1, UniProt P10520); assay: viability-normalized secreted streptokinase activity reduction – plasminogen activation absorbance, OD405, dose response (AID 1914); assay type: functional, Streptococcus pyogenes M1 GAS;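 note: secreted streptokinase activity via plasminogen activation per viability signal from cell pellet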
T3 sequence (P10520 whole entry): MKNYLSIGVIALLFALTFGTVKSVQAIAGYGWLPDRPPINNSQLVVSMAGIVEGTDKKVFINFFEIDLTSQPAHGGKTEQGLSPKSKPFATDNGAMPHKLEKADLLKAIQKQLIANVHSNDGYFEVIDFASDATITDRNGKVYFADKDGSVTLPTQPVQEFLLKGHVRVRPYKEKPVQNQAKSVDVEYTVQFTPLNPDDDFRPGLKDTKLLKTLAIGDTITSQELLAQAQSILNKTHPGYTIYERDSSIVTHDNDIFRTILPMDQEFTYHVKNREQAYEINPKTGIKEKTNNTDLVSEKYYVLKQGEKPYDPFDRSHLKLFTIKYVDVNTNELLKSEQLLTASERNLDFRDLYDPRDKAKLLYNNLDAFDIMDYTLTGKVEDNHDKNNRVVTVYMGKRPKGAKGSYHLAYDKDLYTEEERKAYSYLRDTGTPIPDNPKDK

[21] = system: Streptococcus sp. 'group A'; assay: Streptococcus pyogenes SK(-)GAS viability under kanamycin – luminescence, BacTiterGlo, confirmation, counter-screen for streptokinase expression inhibitor project, dose response (AID 1900); assay type: functional, organism-based; settings: Streptococcus sp. 'group A'
[22] = system: Streptococcus; assay: GAS UMAA2166 growth inhibition – luminescence, BacTiterGlo, counter-screen for streptokinase expression inhibitor project, dose response (AID 1915); assay type: functional, organism-based; settings: Streptococcus;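 note: potency for reduction of bacterial viability or growth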
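Throughout, for AC50: cells exposed to compound for roughly 70 hours or longer before luminescence read.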

T1 sequence (P11940 whole entry, the tested form may be a part): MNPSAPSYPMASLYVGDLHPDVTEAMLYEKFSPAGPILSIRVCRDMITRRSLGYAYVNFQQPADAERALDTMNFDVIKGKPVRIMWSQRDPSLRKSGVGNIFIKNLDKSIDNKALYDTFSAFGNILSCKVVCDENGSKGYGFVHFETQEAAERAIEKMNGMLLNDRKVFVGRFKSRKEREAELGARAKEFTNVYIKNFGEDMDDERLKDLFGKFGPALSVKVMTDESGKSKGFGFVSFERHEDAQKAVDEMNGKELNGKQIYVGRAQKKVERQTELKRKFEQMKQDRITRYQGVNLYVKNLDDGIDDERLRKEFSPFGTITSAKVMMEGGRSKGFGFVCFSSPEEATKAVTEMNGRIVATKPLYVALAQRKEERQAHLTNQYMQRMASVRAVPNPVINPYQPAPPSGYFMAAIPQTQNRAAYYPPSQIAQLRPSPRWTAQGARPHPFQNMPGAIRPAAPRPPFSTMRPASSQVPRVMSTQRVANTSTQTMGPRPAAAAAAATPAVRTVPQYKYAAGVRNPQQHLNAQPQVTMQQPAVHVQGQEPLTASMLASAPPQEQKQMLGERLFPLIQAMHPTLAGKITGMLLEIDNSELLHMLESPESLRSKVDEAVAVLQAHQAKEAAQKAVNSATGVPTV
Sequence of Luciferin 4-monooxygenase (P08659 whole entry): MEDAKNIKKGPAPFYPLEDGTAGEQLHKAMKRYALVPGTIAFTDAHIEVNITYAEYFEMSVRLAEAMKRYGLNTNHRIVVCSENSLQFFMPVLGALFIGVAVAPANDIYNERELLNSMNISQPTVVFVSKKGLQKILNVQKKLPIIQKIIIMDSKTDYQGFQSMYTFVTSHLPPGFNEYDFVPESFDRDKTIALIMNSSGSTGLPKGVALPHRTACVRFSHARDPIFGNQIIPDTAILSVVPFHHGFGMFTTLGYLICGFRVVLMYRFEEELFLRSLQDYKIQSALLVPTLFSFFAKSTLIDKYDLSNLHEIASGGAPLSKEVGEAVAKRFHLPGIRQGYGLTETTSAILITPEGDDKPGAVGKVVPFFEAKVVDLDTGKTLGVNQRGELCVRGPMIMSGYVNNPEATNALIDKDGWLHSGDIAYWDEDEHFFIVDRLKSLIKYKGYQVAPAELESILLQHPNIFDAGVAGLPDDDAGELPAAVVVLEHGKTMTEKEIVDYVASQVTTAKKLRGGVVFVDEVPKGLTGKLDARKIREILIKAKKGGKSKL

CCOc1ccc(C(=O)c2cc([N+](=O)[O-])ccc2Cl)cc1
EC50 [1]: > 150 µM (not active) | EC50 [2]: > 150 µM (not active) | EC50 [3]: > 150 µM (not active) | EC50 [4]: > 150 µM (not active)

CCOc1cc(C2C3=C(O)CCCC3=NC3=C2C(=O)CCC3)ccc1OCCO (stereo not drawn)
IC50 [5]: > 66 µM (inactive) | IC50 [6]: > 66 µM (inactive)

CC(NC(=O)CCc1nnc(-c2ccc(-c3ccccc3)cc2)o1)c1nccs1 (stereo not drawn)
EC50 [7]: 10 µM (active)

N#CC1=C(N)N=C(SCc2cccc3ccccc23)C(C(N)=O)C12CCCCC2 (stereo not drawn)
IC50 [5]: > 66 µM (inactive) | IC50 [6]: > 66 µM (inactive)

CC(C)C(NC(=O)c1ccccc1)C(=O)NC1=NCCS1 (stereo not drawn)
IC50 [5]: > 66 µM (inactive) | IC50 [6]: > 66 µM (inactive)

Cc1ccc(NC(S)=Nc2cccc3cnccc23)cc1C
AC50 [8]: 62.1 µM (active)

Cc1cc2ncc(S(C)(=O)=O)c(N)n2n1
EC50 [9]: > 120 µM (not active) | EC50 [10]: > 120 µM (not active) | EC50 [7]: > 120 µM (not active)

COc1ccc(OC)c(S(=O)(=O)N2CCN(C(=O)c3cc(C4CC4)nn3-c3ccccc3)CC2)c1
IC50 [5]: > 66 µM (inactive) | IC50 [6]: > 66 µM (inactive)

CC(=O)Oc1ccc(-c2csc(Nc3ccc(Cl)cn3)n2)cc1
AC50 [8]: 5.14 µM (active)

COc1ccc(/C=C/C(=O)NC(=S)Nc2ccc(S(=O)(=O)Nc3nccnc3OC)cc2)cc1
IC50 [5]: > 66 µM (inactive) | IC50 [6]: > 66 µM (inactive)

CCOc1cc(S(=O)(=O)n2cc(-c3ccc(F)cc3)c(N)n2)cc(OCC)c1OCC
EC50 [9]: 15.8 µM (active) | EC50 [10]: > 120 µM (not active) | EC50 [7]: > 120 µM (not active)

O=C(CSc1ncn(-c2ccccc2)n1)c1cccs1
EC50 [11]: > 120 µM (not active) | IC50 [5]: > 66 µM (inactive) | EC50 [12]: 0.255 µM (active) | IC50 [6]: > 66 µM (inactive) | EC50 [13]: 25.5 µM (active)

CC(C)n1c(SCC(=O)N2c3ccccc3Sc3ccccc32)nc2c1c(=O)n(C)c(=O)n2C
EC50 [9]: 13.3 µM (active) | EC50 [10]: 22.2 µM (active) | EC50 [7]: 13.6 µM (active)

Fc1ccc(-[n+]2nc(Nc3ccccc3)sc2-c2cccc(Cl)c2Cl)cc1
IC50 [5]: > 66 µM (inactive) | IC50 [6]: > 66 µM (inactive)

NNC(=O)c1nn(-c2ccccc2)cc1O
EC50 [9]: > 120 µM (not active) | EC50 [10]: > 120 µM (not active) | EC50 [7]: > 120 µM (not active)

CCNS(=O)(=O)c1ccc(NC(=O)Nc2cccc(C(F)(F)F)c2)cc1
EC50 [14]: 3.63 µM (active) | EC50 [15]: > 60 µM (not active) | AC50 [8]: 7.58 µM (active)

CNC(S)=NCCc1ccc(OC)c(OC)c1
EC50 [16]: > 112 µM (not active) | EC50 [17]: > 112 µM (not active)

CC1CCC2C(=O)N(c3ccc(NC4CCCCC4)c([N+](=O)[O-])c3)C(=O)C2C1 (stereo not drawn)
AC50 [8]: < 0.16 µM (active)

Cc1[nH]c2ccccc2c1C(Nc1nccs1)c1ccncc1 (stereo not drawn)
EC50 [16]: 14.6 µM (active) | EC50 [17]: > 112 µM (not active)

COc1ccccc1CNC(=O)COc1cc2c(c3oc(=O)cc(C)c13)CCC(C)(C)O2
EC50 [9]: 16 µM (active) | EC50 [10]: > 120 µM (not active) | EC50 [7]: > 120 µM (not active)

Cc1cc(C(=O)N/N=C/c2cc(Br)ccc2OC(=O)c2ccccc2Cl)[nH]n1
EC50 [9]: 13.4 µM (active) | EC50 [10]: > 120 µM (not active) | IC50 [18]: > 79 µM (inactive) | EC50 [7]: 18.8 µM (active)

O=C(CSC1=NCCS1)Nc1ccccc1F
IC50 [5]: > 66 µM (inactive) | IC50 [6]: > 66 µM (inactive)

NC(=NOC(=O)c1ccccc1Cl)c1nonc1N
EC50 [16]: 4.54 µM (active) | EC50 [17]: 1.11 µM (active)

COc1ccc(CC(=O)NCc2ccc(-n3cccc3)cc2)cc1OC
EC50 [9]: > 120 µM (not active) | EC50 [10]: 6.37 µM (active) | EC50 [7]: 9.97 µM (active)

O=Nc1c(O)n(Cc2c(Cl)cccc2Cl)c2ccccc12
EC50 [16]: > 112 µM (not active) | EC50 [19]: 4.67 µM (active) | EC50 [17]: > 112 µM (not active)

COC(=O)C1=C(Nc2ccc(C)cc2)C=C(C)C(C(=O)OC)C1c1ccc(OC)cc1 (stereo not drawn)
EC50 [9]: > 120 µM (not active) | EC50 [10]: 11 µM (active) | EC50 [7]: 15.5 µM (active)

CCc1ccc(CNC(=O)C2CCN(c3nnc(C)c4c(C)n(-c5ccc(C)cc5)nc34)CC2)cc1
AC50 [8]: 3.85 µM (active)

Cn1cccc1/C=C1\SC(=S)N(Nc2ccccc2)C1=O
EC50 [14]: 2.67 µM (active) | EC50 [15]: 3.85 µM (active) | AC50 [8]: 0.978 µM (active)

CNC(=S)N/N=C/c1cn(Cc2ccc(C)cc2)c2ccccc12
EC50 [20]: 74.1 µM (active) | EC50 [21]: 5.29 µM (active) | EC50 [22]: 28 µM (active) | AC50 [8]: 3.07 µM (active)

CCc1nc(NC(C)C)c2oc3ccccc3c2n1
EC50 [16]: > 112 µM (not active) | EC50 [17]: > 112 µM (not active)

COC(=O)c1sc(NC(=O)c2c(C)noc2C)nc1C
EC50 [16]: > 112 µM (not active) | EC50 [17]: 30.6 µM (active)

Cc1ccc(O)c(NC(=S)NC(=O)/C=C/c2ccccc2)c1
IC50 [5]: > 66 µM (inactive) | IC50 [6]: > 66 µM (inactive)
